This note sets out measurements from ChEMBL document CHEMBL5233247, “Recent advances in DNA gyrase-targeted antimicrobial agents” (Eur J Med Chem, 2020).

Molecules are shown by their SMILES. Converted amounts (≈) assume the structure as drawn. “And” between values parts separate entries of the source, which are not always exact repeats. Equal entries are not always repeated.

For assay [1], the target named is DNA gyrase (Escherichia coli, UniProt P0AES4+P0AES6). The experiment in a line: Inhibition of Escherichia coli DNA gyrase. Format: protein-complex assay.
Assay [2] has as its system Bacillus subtilis. The assay is described as follows: Antibacterial activity against Bacillus subtilis. It counts as functional.
The subject of assay [3] is Staphylococcus aureus. The assay is described as follows: Antimicrobial activity against Staphylococcus aureus MSCL 334 assessed as inhibition of bacterial growth incubated for 24 hrs by standardized broth dilution method. Format: functional.
For assay [4], the system named is Bacillus subtilis. The assay is described as follows: Antimicrobial activity against Bacillus subtilis assessed as inhibition of bacterial growth incubated for 24 hrs by standardized broth dilution method. Format: functional.
Assay [5] has as its system Escherichia coli. The assay is described as follows: Antimicrobial activity against Escherichia coli MSCL 332 assessed as inhibition of bacterial growth incubated for 24 hrs by standardized broth dilution method. Format: functional.
Assay [6] relates to Aggregatibacter actinomycetemcomitans. The assay is described as follows: Antibacterial activity against Aggregatibacter actinomycetemcomitans. It counts as functional.
The target in assay [7] is DNA gyrase subunit A/DNA gyrase subunit B (Mycobacterium tuberculosis (strain ATCC 25618 / H37Rv), UniProt P9WG45+P9WG47). The assay is described as follows: Inhibition of Mycobacterium tuberculosis (MTB) DNA gyrase using pBR322 DNA by supercoiling assay. Format: protein-complex assay.
Assay [8] relates to Mycobacterium tuberculosis. The experiment in a line: Antimycobacterial activity against Mycobacterium tuberculosis incubated for 7 days by MABA assay. It counts as functional. Conditions: 168 h, time 7 day.
Assay [9] has as its system Escherichia coli. The assay is described as follows: Antibacterial activity against Escherichia coli. It counts as functional.
The subject of assay [10] is Micrococcus luteus. The experiment in a line: Antibacterial activity against Micrococcus luteus. It counts as functional.
The subject of another assay is Salmonella typhimurium. The assay is described as follows: Antibacterial activity against Salmonella typhimurium. It counts as functional, Salmonella enterica subsp. enterica serovar Typhimurium. To be noted: Salmonella enterica.
The test system of assay [11] is Mycobacterium tuberculosis. The experiment in a line: Antitubercular activity against Mycobacterium tuberculosis H37Rv MTCC-200. It counts as functional.
The test system of assay [12] is Staphylococcus aureus. The experiment in a line: Antimicrobial activity against Staphylococcus aureus ATCC 4163 incubated for by the twofold serial agar dilution technique. It counts as functional.
Assay [13] relates to Staphylococcus aureus. The experiment in a line: Antimicrobial activity against Staphylococcus aureus ATCC 25923 incubated for by the twofold serial agar dilution technique. Format: functional.
Assay [14] deals with Staphylococcus aureus. The experiment in a line: Antimicrobial activity against Staphylococcus aureus ATCC 29213 incubated for by the twofold serial agar dilution technique. Format: functional.
Assay [15] deals with Staphylococcus aureus. The experiment in a line: Antimicrobial activity against Staphylococcus aureus ATCC 6538 incubated for by the twofold serial agar dilution technique. It counts as functional.
The next assay concerns Bacillus cereus. The experiment in a line: Antimicrobial activity against Bacillus cereus ATCC 11778 incubated for by the twofold serial agar dilution technique. Format: functional.
Assay [16] deals with Staphylococcus epidermidis. The assay is described as follows: Antimicrobial activity against Staphylococcus epidermidis ATCC 12228 incubated for by the twofold serial agar dilution technique. It counts as functional.
For assay [17], the system named is Bacillus subtilis. The assay is described as follows: Antimicrobial activity against Bacillus subtilis ATCC 6633 incubated for by the twofold serial agar dilution technique. Format: functional.
Assay [18] deals with Micrococcus luteus. The assay is described as follows: Antimicrobial activity against Micrococcus luteus ATCC 9341 incubated for by the twofold serial agar dilution technique. Format: functional.
For assay [19], the system named is Micrococcus luteus. The experiment in a line: Antimicrobial activity against Micrococcus luteus ATCC 10240 incubated for by the twofold serial agar dilution technique. Format: functional.
For assay [20], the system named is Staphylococcus aureus. The assay is described as follows: Antimicrobial activity against Staphylococcus aureus assessed as inhibition of visible growth incubated for 24 hrs by agar-dilution method. Format: functional.
A further assay deals with Listeria monocytogenes. The assay is described as follows: Antimicrobial activity against Listeria monocytogenes assessed as inhibition of visible growth incubated for 24 hrs by agar-dilution method. It counts as functional.
Assay [21] concerns Escherichia coli. The experiment in a line: Antimicrobial activity against Escherichia coli assessed as inhibition of visible growth incubated for 24 hrs by agar-dilution method. Format: functional.
In assay [22] the test system is Salmonella enterica subsp. enterica serovar Gallinarum. The assay is described as follows: Antimicrobial activity against Salmonella gallinarum assessed as inhibition of visible growth incubated for 24 hrs by agar-dilution method. Format: functional.
Assay [23] deals with Staphylococcus aureus. The assay is described as follows: Antimicrobial activity against methicillin-resistant Staphylococcus aureus MTCC 96. Format: functional.
In assay [24] the target is T1, DNA gyrase (Staphylococcus aureus, UniProt P0A0K8+P20831). The assay is described as follows: Inhibition of Staphylococcus aureus DNA gyrase. Format: protein-complex assay.
For assay [25], the system named is Escherichia coli. The experiment in a line: Antimicrobial activity against Escherichia coli MTCC 443 assessed as zone of inhibition incubated for 24 hrs by agar well diffusion method. Format: functional.
The next assay deals with Pseudomonas aeruginosa. The experiment in a line: Antimicrobial activity against Pseudomonas aeruginosa MTCC 424 assessed as zone of inhibition incubated for 24 hrs by agar well diffusion method. Format: functional.
Assay [26] deals with Staphylococcus aureus. The assay is described as follows: Antimicrobial activity against Staphylococcus aureus MTCC 96 assessed as zone of inhibition incubated for 24 hrs by agar well diffusion method. Format: functional.
The test system of another assay is Streptococcus pyogenes. The assay is described as follows: Antimicrobial activity against […] MTCC 442 assessed as zone of inhibition incubated for 24 hrs by agar well diffusion method. It counts as functional.
Assay [27] relates to Enterococcus faecalis. The experiment in a line: Antimicrobial activity against vancomycin-sensitive Enterococcus faecalis assessed as inhibition of bacterial growth by CLSI broth micro plate assay. It counts as functional.
The test system of assay [28] is Enterococcus faecalis. The experiment in a line: Antimicrobial activity against vancomycin-resistant Enterococcus faecalis assessed as inhibition of bacterial growth by CLSI broth micro plate assay. Format: functional.
The test system of assay [29] is Staphylococcus aureus. The assay is described as follows: Antimicrobial activity against methicillin-sensitive Staphylococcus aureus assessed as inhibition of bacterial growth by CLSI broth micro plate assay. Format: functional.
The test system of assay [30] is Staphylococcus aureus. The assay is described as follows: Antimicrobial activity against methicillin-resistant Staphylococcus aureus assessed as inhibition of bacterial growth by CLSI broth micro plate assay. It counts as functional.
Assay [31] has as its target T1, DNA gyrase. The assay is described as follows: Inhibition of Staphylococcus aureus DNA gyrase assessed as relaxation of pBR322 DNA by supercoiling assay. It counts as protein-complex assay.

T1 sequence (P0A0K8 whole entry, the tested form may be a part): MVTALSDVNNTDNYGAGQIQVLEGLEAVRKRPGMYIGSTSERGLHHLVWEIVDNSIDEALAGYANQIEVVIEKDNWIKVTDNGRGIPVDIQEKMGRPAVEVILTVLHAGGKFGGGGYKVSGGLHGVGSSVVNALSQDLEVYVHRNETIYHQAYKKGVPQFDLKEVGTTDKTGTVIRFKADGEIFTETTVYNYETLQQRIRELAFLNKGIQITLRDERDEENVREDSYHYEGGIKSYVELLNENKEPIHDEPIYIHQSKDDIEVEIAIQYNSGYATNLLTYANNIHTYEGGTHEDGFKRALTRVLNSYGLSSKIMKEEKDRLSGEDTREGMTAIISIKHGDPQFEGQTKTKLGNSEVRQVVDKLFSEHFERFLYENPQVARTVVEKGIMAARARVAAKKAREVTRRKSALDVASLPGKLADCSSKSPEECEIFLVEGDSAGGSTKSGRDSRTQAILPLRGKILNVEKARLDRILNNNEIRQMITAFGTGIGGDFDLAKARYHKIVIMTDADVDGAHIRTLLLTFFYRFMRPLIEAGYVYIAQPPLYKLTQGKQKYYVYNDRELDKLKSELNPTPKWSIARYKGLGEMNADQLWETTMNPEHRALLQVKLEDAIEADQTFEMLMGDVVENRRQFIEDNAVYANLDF
T1 sequence (P20831 whole entry, the tested form may be a part): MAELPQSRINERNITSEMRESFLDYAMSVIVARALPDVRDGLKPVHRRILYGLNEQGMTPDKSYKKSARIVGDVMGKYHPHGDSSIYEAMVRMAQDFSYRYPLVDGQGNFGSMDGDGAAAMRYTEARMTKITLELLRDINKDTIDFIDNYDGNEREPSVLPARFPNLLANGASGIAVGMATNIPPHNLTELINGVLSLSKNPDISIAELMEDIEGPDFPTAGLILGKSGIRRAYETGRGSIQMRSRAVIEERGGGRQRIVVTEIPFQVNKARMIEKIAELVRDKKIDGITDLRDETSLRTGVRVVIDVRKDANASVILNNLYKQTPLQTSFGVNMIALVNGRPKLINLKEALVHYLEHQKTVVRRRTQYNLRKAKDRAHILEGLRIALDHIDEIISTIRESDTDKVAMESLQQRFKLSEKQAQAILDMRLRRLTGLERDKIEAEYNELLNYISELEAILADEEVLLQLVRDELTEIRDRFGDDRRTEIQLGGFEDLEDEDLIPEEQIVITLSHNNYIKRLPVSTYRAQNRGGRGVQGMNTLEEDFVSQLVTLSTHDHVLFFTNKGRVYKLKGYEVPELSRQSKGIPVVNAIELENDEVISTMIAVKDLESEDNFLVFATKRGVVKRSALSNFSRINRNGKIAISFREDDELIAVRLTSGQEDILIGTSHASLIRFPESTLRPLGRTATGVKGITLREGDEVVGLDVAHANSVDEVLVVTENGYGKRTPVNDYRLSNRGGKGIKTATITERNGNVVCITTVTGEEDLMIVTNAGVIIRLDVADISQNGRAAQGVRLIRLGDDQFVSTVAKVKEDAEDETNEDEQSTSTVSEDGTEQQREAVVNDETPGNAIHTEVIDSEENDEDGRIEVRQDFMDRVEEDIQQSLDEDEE
DNA gyrase subunit A/DNA gyrase subunit B, sequence (P9WG45 whole entry): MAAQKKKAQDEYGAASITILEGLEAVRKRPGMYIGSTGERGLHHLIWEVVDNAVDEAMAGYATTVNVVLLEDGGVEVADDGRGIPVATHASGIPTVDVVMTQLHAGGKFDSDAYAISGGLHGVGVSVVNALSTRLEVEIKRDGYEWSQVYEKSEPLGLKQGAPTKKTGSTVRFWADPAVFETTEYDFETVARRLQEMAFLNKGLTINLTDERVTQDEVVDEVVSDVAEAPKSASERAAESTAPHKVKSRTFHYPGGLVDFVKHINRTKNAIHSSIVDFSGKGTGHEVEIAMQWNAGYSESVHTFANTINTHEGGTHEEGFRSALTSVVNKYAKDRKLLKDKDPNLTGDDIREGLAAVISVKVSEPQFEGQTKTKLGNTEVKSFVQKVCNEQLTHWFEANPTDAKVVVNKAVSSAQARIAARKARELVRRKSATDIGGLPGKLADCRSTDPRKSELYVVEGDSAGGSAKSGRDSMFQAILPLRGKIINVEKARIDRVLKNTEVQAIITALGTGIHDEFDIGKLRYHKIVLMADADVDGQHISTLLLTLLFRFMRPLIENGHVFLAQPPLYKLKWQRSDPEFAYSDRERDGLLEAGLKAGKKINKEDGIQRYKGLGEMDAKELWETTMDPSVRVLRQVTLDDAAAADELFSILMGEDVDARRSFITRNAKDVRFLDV
DNA gyrase subunit A/DNA gyrase subunit B, sequence (P9WG47 whole entry): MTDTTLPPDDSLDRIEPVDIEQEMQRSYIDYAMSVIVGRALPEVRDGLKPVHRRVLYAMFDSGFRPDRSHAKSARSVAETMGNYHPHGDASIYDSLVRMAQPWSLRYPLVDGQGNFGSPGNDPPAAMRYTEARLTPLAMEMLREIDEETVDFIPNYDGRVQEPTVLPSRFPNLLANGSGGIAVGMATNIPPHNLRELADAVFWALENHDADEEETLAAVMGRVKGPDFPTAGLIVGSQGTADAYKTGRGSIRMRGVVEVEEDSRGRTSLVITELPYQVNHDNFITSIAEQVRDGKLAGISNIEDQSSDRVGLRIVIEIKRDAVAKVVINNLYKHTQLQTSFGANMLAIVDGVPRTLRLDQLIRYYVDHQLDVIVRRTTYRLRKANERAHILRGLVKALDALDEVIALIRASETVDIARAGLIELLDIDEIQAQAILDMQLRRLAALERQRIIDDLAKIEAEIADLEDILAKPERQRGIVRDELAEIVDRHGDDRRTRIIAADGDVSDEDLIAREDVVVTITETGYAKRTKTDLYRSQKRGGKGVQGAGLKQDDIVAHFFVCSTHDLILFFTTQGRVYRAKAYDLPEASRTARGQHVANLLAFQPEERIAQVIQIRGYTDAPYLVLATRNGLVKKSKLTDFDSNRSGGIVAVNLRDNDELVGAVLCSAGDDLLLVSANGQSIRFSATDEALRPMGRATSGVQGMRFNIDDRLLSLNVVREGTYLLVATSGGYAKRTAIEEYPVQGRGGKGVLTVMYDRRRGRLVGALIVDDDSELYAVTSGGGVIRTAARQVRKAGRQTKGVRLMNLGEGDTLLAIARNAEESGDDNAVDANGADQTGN

With `CCn1cc(-c2nc(NC(=O)c3ccccc3)n[nH]2)c(=O)c2ccc(C)nc21`, 10.4 µM corresponded to half-maximal inhibition against DNA gyrase [1] (IC50). Further, in the assay with Bacillus subtilis [2], the MIC turned out to be 3.68 µM (≈ 1.38 µg/mL).

Consider `CCCCCCCOCC[N+]1(C)CCCc2ccccc21.[I-]` (stereo not given), for which the MIC in the assay with Staphylococcus aureus [3] worked out at 1 µg/mL; in the assay with Bacillus subtilis [4], 2 µg/mL; in the assay with Escherichia coli [5], 128 µg/mL.

The compound `CCn1cc(-c2nc(NC(=O)c3ccccc3)n[nH]2)c(=O)c2cc(Br)c(C)nc21` came in with an MIC in assay [6] of 4.25 µM (≈ 1.93 µg/mL).

`O=c1nc(N2CCN(C(=S)Nc3ccc(Cl)cc3)CC2)sc2ccc([N+](=O)[O-])cc12`: the concentration for half-maximal inhibition (IC50) in assay [7] stood at 0.82 µM. The same compound yielded an MIC in [8] of 2.83 µM (≈ 1.31 µg/mL).

For the compound `COc1c(NC(=O)c2ccc(NC(=O)c3ccc(NC(=O)[C@H](CC#N)NC(=O)c4ccc(NC(=O)/C(C)=C/c5ccc(C(F)(F)F)cc5)cc4)cc3)c(OC)c2O)ccc(C(=O)O)c1O`, the MIC in the assay on Escherichia coli [9] is 0.14 µM (≈ 0.125 µg/mL); in the assay with Bacillus subtilis [2], 0.28 µM (≈ 0.251 µg/mL); with Micrococcus luteus [10], 0.238 µM and 0.112 µM; in the assay on Salmonella typhimurium, 0.07 µM (≈ 0.0626 µg/mL).

The compound `O=C1Nc2ccccc2/C1=C/c1ccc(OC(=O)c2ccccc2)cc1` came in with an MIC in assay [11] of 73 µg/mL (≈ 214 µM).

`S=C(NCCc1c[nH]c2ccccc12)Nc1ccc(Cl)c(Cl)c1`: the MIC against Staphylococcus aureus [12] was 6.25 µg/mL (≈ 17.2 µM); in the assay on Staphylococcus aureus [13], 6.25 µg/mL (≈ 17.2 µM); with Staphylococcus aureus [14], 6.25 µg/mL (≈ 17.2 µM); against Staphylococcus aureus [15], 6.25 µg/mL (≈ 17.2 µM); in the assay with Bacillus cereus, 6.25 µg/mL (≈ 17.2 µM); in assay [16], 12.5 µg/mL (≈ 34.3 µM). Also, the MIC was 12.5 µg/mL (≈ 34.3 µM) against Bacillus subtilis [17], 6.25 µg/mL (≈ 17.2 µM) in the assay on Micrococcus luteus [18] and 6.25 µg/mL (≈ 17.2 µM) against Micrococcus luteus [19].

With `Cc1ccc(-n2nc(C)c(C(=O)Oc3ncn(-c4ccccc4)n3)c2Cl)cc1`, the MIC (in the assay on Staphylococcus aureus [20]; with Listeria monocytogenes; in the assay with Escherichia coli [21]; in assay [22]) was 0.5 µg/mL (≈ 1.27 µM) throughout.

In the assay with Staphylococcus aureus [23], `Cc1ccc(C(=O)Nc2ccc(NC(=O)CCC(=O)NN)cc2)o1` came in with an MIC of 18.9 µM (≈ 6.25 µg/mL).

On to `CCCCCCCOCC[N+]1(C)CCc2ccccc2C1.[I-]` (stereo not given), for which the MIC in the assay with Staphylococcus aureus [3] is 8 µg/mL; in the assay on Bacillus subtilis [4], 128 µg/mL; with Escherichia coli [5], 128 µg/mL.

On DNA gyrase [24], `COc1ccc2ccc(F)c(CC(=O)N/N=C/c3ccc(F)cc3F)c2n1` gave a half-maximal inhibitory concentration (IC50) of 375 µM. Moreover, the “inhibition zone (IZ)” value with Escherichia coli [25] amounted to 21 mm; in the assay on Pseudomonas aeruginosa it was 20 mm; in the assay with Staphylococcus aureus [26] it was 18 mm; in the assay with Streptococcus pyogenes it was 20 mm.

Take `COc1cc2c(cc1OCCCC(=O)Nc1cc(NC(=O)c3ccc4sccc4c3)n(C)c1)N=C[C@@H]1CCCN1C2=O`: the MIC with Enterococcus faecalis [27], in the assay with Enterococcus faecalis [28], with Staphylococcus aureus [29] and in the assay with Staphylococcus aureus [30] was 0.5 µg/mL (≈ 0.854 µM) throughout. Moreover, the IC50 on DNA gyrase [31] is 1.62 µM.
